Tests used:
[1] = test system: Skov-3 subcutaneous xenografts; test: In vivo biodistribution and optimal time point FLI in subcutaneous Skov-3 xenograft model (IVIS Spectrum); set-up: species or system NOD-scid IL2Rg^null mice; settings: for tumour to background ratio (TBR): mean ± SD; for excretion route: mice
Method: (§1) All applicable institutional and/or national guidelines for the care and use of animals were followed. All experiments were approved by The Norwegian Animal Research Authority and conducted according to The European Convention for the Protection of Vertebrates Used for Scientific Purposes (Application ID 14128). NOD-scid IL2Rg^null mice (referred to as NSG) were housed in groups of ≤ 5 in individually ventilated cages changed twice per month and kept in a 12-h […] schedule at 21 °C at the Vivarium, University of Bergen. Observations for general condition and body weights were recorded twice per week and, when indicated, the animals were euthanised according to institutional guidelines. Skov-3 and A549 subcutaneous xenografts were established through bi-lateral flank injections of 5 × 10^6 cells, resuspended in 100 μL PBS containing 16.7% Matrigel (Corning Inc., MA, USA). Tumour volumes were measured weekly with a digital calliper and calculated using the ellipsoid volume formula: Volume = π (length × width × height)/6.
For biodistribution assessment of conjugates 1–5, mice were intravenously (iv) injected with 100 μL of a 10-μM conjugate solution when mean tumour volumes reached ≈150 mm^3, corresponding to a dose of […]. The dose was chosen on the basis of preclinical mouse models previously performed using folate-NIR (OTL38) FLI [28]. To determine the timepoint for the optimal TBR, optical imaging was performed at 0 h, 0.5 h, 1 h, 2 h, 4 h, 6 h, 8 h, 24 h and 48 h using the IVIS Spectrum. Fluorescence signals were analysed with the Living Imaging® software v4.5 (PerkinElmer Inc.) and expressed as average radiance (p/s/cm^2/sr). Regions of interest (ROI) were manually drawn around the subcutaneous tumours in the flanks and the adjacent tissue to calculate TBRs at all time points. Next, subcutaneous xenograft models were imaged at the pre-determined optimal time points, which were 4 h for conjugates 1, 2 and 3 and 24 h for conjugates 4 and 5.

[2] = Fluorescence spectroscopy (excitation and emission spectra); type: physicochemical
Method: The spectral characteristics of the conjugates 1–5 were determined using a Spark 20M plate reader (Tecan, Switzerland). The emission and excitation of all conjugates were measured in triplicates with a bandwidth of 5 nm in a 96-well Half-Area Microplate at a concentration of 100 μM dissolved in phosphate buffered saline (PBS). The fluorescence intensity was plotted as normalised relative fluorescence units (RFU).
Using conjugates 1–5, we evaluated how the conjugation of the different fluorophores to EDAF (Fig. 1a) affected the optical properties. To do so, we defined their individual excitation and emission spectra, and determined the optimal FLI parameters. The different conjugates (Fig. 1b) were diluted in medium or in DMSO and the peak excitation and emission obtained are reported in Table 1, Fig. 1c and Fig. S17.

[3] = test system: Skov-3 and A549 subcutaneous xenografts; test: Ex vivo tumour and organ biodistribution (IVIS Spectrum and FLARE intraoperative system); type: in vivo, NOD-scid IL2Rg^null mice; settings: for ex vivo fluorescence signal in tumours (FLARE): Skov-3 tumour; for ex vivo fluorescence in the kidneys (FLARE): exposure time 1000 ms
Method: as §1
Organ biodistribution was assessed ex vivo for each conjugate in Skov-3 and in the control cell line, A549. Four hours after iv administration of 1, 2 and 3 and 24 h after injection of 4 and 5 (100 μl, 10 μM), mice were euthanised and tumours and organs were harvested. FLI was performed with the IVIS Spectrum, and subsequently, fluorescence was acquired using the FLARE® intraoperative system (Curadel LLC), employing the NIR channel #2 (λex = 760 ± 3 nm and λem = > 781 nm longpass) at three different exposure times (500, 1000 and 2000 ms) at a gain of 1. IVIS Spectrum data were analysed as previously described, and FLARE data were analysed using ImageJ (Fiji, version 1.52p, [29]) and the integrated FLARE analysis platform using grey scale values expressed in arbitrary units (AU).

[4] = test system: Skov-3 and A549 subcutaneous xenografts; test: In vivo FLI at optimal time points, Skov-3 versus A549 xenografts (target specificity); set-up: species or system NOD-scid IL2Rg^null mice; settings: 4 h after iv injection, p < 0.05
Method: as §1, with “Skov-3 and A549 subcutaneous xenografts were established through bi-lateral flank injections of 5 × 10^6 cells, resuspended in 100 μL PBS containing 16.7% Matrigel (Corning Inc., MA, USA).” left out
For biodistribution assessment of conjugates 1–5, mice were intravenously (iv) injected with 100 μL of a 10-μM conjugate solution when mean tumour volumes reached ≈150 mm^3, corresponding to a dose of 500 nmol/mouse. […] Fluorescence signals were analysed with the Living Imaging® software v4.5 (PerkinElmer Inc.) and expressed as average radiance (p/s/cm^2/sr). […] Next, subcutaneous xenograft models were imaged at the pre-determined optimal time points, which were 4 h for conjugates 1, 2 and 3 and 24 h for conjugates 4 and 5.

[5] = 24 h after iv injection, Skov-3 subcutaneous xenograft
[6] = 24 h after iv injection, exposure time 2000 ms
[7] = Skov-3 xenografted mice, 24 h after iv injection
[8] = 4 h after iv injection, Skov-3 subcutaneous xenograft
[9] = 8 h after iv injection, Skov-3 subcutaneous xenograft
[10] = 4 h after iv injection, exposure time 2000 ms

Row | SMILES | tumour to background ratio (TBR) [1, 5] | excretion route ([1]; iv injection) | Stokes shift ([2]; DMSO) [nm] | λem ([2]; DMSO) [nm] | λex ([2]; DMSO) [nm] | Stokes shift ([2]; culture medium) [nm] | λem ([2]; culture medium) [nm] | λex ([2]; culture medium) [nm] | ex vivo organ accumulation (IVIS Spectrum) ([3]; 24 h after iv injection) | ex vivo fluorescence signal in tumours (FLARE) [3, 6] [AU] | ex vivo fluorescence in the kidneys (FLARE) [3, 7] [AU] | tumour to background ratio (TBR) [1, 8] | tumour to background ratio (TBR) [1, 9] | ex vivo fluorescence signal in tumours (FLARE) [3, 10] [AU] | residual fluorescence in healthy organs in vivo ([1]; 24 h after iv injection) | other results
1 | C[N+]1=C(/C=C/C2=C(Cl)C(=C/C=C3/N(CCCCCC(=O)NCCNC(=O)CC[C@H](NC(=O)c4ccc(NCc5cnc6nc(N)[nH]c(=O)c6n5)cc4)C(=O)O)c4ccccc4C3(C)C)/CCC2)C(C)(C)c2ccccc21 [Conjugate 5, 2-((E)-2-((E)-3-(2-((E)-1-(6-((2-((S)-4-(4-(((2-amino-4-oxo-3,4-dihydropteridin-6-yl)methyl)amino)benzamido)-4-carboxybutanamido)ethyl)amino)-6-oxohexyl)-3,3-dimethylindolin-2-ylidene)ethylidene)-2-chlorocyclohex-1-en-1-yl)vinyl)-1,3,3-trimethyl-3H-indol-1-ium] | 2.1 ± 0.6 | hepatobiliary excretion | 24 | 820 | 796 | 15 | 804 | 789 | in the stomach | 60.9 ± 6.3 | 63.9 ± 11.3 | – | – | – | – | time at which tumour fluorescence became evident ([1]; post-injection, Skov-3 subcutaneous xenograft): 4 h
2 | CC1(C)C(/C=C/C=C/C=C/C=C2\N(CCCCCC(=O)NCCNC(=O)CC[C@H](NC(=O)c3ccc(NCc4cnc5nc(N)[nH]c(=O)c5n4)cc3)C(=O)O)c3ccc4ccccc4c3C2(C)C)=[N+](CCCCS(=O)(=O)[O-])c2ccc3ccccc3c21 [Conjugate 4, 4-(2-((1E,3E,5E,7Z)-7-(3-(6-((2-((S)-4-(4-(((2-amino-4-oxo-3,4-dihydropteridin-6-yl)methyl)amino)benzamido)-4-carboxybutanamido)ethyl)amino)-6-oxohexyl)-1,1-dimethyl-1,3-dihydro-2H-benzo[e]indol-2-ylidene)hepta-1,3,5-trien-1-yl)-1,1-dimethyl-1H-benzo[e]indol-3-ium-3-yl)butane-1-sulfonate] | 1.0 ± 0.1 | hepatobiliary excretion | 42 | 832 | 790 | 36 | 820 | 784 | mainly in the liver | 56.4 ± 4.1 | 100.4 ± 37.8 | – | – | – | – | tumour to background ratio (TBR) ([1]; 0.5 h after iv injection, Skov-3 subcutaneous xenograft): 1.3 ± 0.3; accumulation in tumours ([1]; Skov-3 subcutaneous xenograft, iv injection): no accumulation in tumours; ex vivo fluorescence intensity in the liver (FLARE) ([3]; Skov-3 xenografted mice, 24 h after iv injection, exposure time 2000 ms): 283.3 ± 38.7 AU
3 | CC1(C)C(/C=C/C2=C(c3ccc(CCC(=O)NCCNC(=O)CC[C@H](NC(=O)c4ccc(NCc5cnc6nc(N)[nH]c(=O)c6n5)cc4)C(=O)O)cc3)C(=C/C=C3/N(CCC[N+](C)(C)C)c4ccc(S(=O)(=O)O)cc4C3(C)C)/CCC2)=[N+](CCC[N+](C)(C)C)c2ccc(S(=O)(=O)O)cc21 [Conjugate 2, 2-((E)-2-((E)-4'-(3-((2-((S)-4-(4-(((2-amino-4-oxo-3,4-dihydropteridin-6-yl)methyl)amino)benzamido)-4-carboxybutanamido)ethyl)amino)-3-oxopropyl)-6-(2-((E)-3,3-dimethyl-5-sulfonato-1-(3-(trimethylammonio)propyl)indolin-2-ylidene)ethylidene)-3,4,5,6-tetrahydro-[1,1'-biphenyl]-2-yl)vinyl)-3,3-dimethyl-1-(3-(trimethylammonio)propyl)-3H-indol-1-ium-5-sulfonate] | – | renally cleared | 28 | 802 | 774 | 28 | 788 | 760 | – | – | – | 1.8 ± 0.2 | 2.0 ± 0.2 | 213.1 ± 51.0 | – | time that the fluorescence signal in Skov-3 tumours was sustained ([1]; after iv injection, last imaging time point 48 h): up to 48 h; difference in average radiance between Skov-3 and A549 tumours [4]: significant difference
4 | CC1(C)C(/C=C/C2=C(Oc3ccc(CCC(=O)NCCNC(=O)CC[C@H](NC(=O)c4ccc(NCc5cnc6nc(N)[nH]c(=O)c6n5)cc4)C(=O)O)cc3)C(=C/C=C3/N(CCC[N+](C)(C)C)c4ccc(S(=O)(=O)O)cc4C3(C)C)/CCC2)=[N+](CCC[N+](C)(C)C)c2ccc(S(=O)(=O)O)cc21 [Conjugate 1, 2-((E)-2-((E)-2-(4-(3-((2-((S)-4-(4-(((2-amino-4-oxo-3,4-dihydropteridin-6-yl)methyl)amino)benzamido)-4-carboxybutanamido)ethyl)amino)-3-oxopropyl)phenoxy)-3-(2-((E)-3,3-dimethyl-5-sulfonato-1-(3-(trimethylammonio)propyl)indolin-2-ylidene)ethylidene)cyclohex-1-en-1-yl)vinyl)-3,3-dimethyl-1-(3-(trimethylammonio)propyl)-3H-indol-1-ium-5-sulfonate] | – | renally cleared | 24 | 816 | 792 | 25 | 802 | 777 | – | – | – | 1.9 ± 0.3 | 2.0 ± 0.4 | 156.9 ± 22.0 | residual fluorescence signal in the kidneys | –
5 | CC1(C)C(/C=C/C2=C(Oc3ccc(S(=O)(=O)O)cc3)C(=C/C=C3/N(CCCCS(=O)(=O)O)c4ccc(S(=O)(=O)[O-])cc4C3(C)C)/CCC2)=[N+](CCCCCC(=O)NCCNC(=O)CC[C@H](NC(=O)c2ccc(NCc3cnc4nc(N)[nH]c(=O)c4n3)cc2)C(=O)O)c2ccc(S(=O)(=O)O)cc21 [Conjugate 3, 1-(6-((2-((S)-4-(4-(((2-amino-4-oxo-3,4-dihydropteridin-6-yl)methyl)amino)benzamido)-4-carboxybutanamido)ethyl)amino)-6-oxohexyl)-2-((E)-2-((E)-3-(2-((E)-3,3-dimethyl-5-sulfonato-1-(4-sulfonatobutyl)indolin-2-ylidene)ethylidene)-2-(4-sulfonatophenoxy)cyclohex-1-en-1-yl)vinyl)-3,3-dimethyl-3H-indol-1-ium-5-sulfonate] | – | renally cleared | 28 | 826 | 798 | 25 | 808 | 783 | – | – | – | 1.2 ± 0.2 | 1.4 ± 0.3 | 189.7 ± 27.1 | residual fluorescence signal in the kidneys | ex vivo fluorescence in the kidneys (FLARE) ([3]; Skov-3 xenografted mice, 4 h after iv injection): 913.6 ± 248.9 AU
